Counter-ions that a name gives are not always drawn.
Assays:
[1] = molecular target: β-N-acetylglucosaminidase (from jack bean); assay: Inhibition assay against commercial β-N-acetylglucosaminidase (jack bean), p-nitrophenyl N-acetyl-β-D-glucosaminide substrate; assay type: biochemical; details: pH 5.5, 37° C.; average of three determinations ± s.e.m.; NI = no inhibition detected at 200 μM; read-out: Jack beans Hex
Procedure: Inhibition Assays Against Commercial β-N-acetylglucosaminidases
Inhibition constant (Ki) values were determined by spectrophotometrically measuring the residual hydrolytic activities of the glycosidases against p-nitrophenyl N-acetyl-β-D-glucosaminide. […] Each assay was performed in phosphate-citrate buffer and the reactions were initiated by addition of the enzyme to a solution of the substrate in the absence or presence of various inhibitor concentrations. The mixture was incubated for 10-30 min at 37° C. and the reaction was quenched by addition of 1 M Na2CO3. Reaction times were appropriate to obtain 10-20% conversion of the substrate in order to achieve linear rates. The absorbance of the resulting mixture was determined at 405 nm. Approximate values of Ki were determined using a fixed concentration of substrate (around the Km value for the different glycosidases) and various inhibitor concentrations. Full Ki determinations and enzyme inhibition mode were determined from the slope of Lineweaver-Burk plots and double reciprocal analysis using a Microsoft Office Excel 2007 program.

[2] = system: Total hHex; assay: Inhibition of total hHex; assay type: biochemical, human; details: IC50 for total hHexA; NI = no inhibition detected at 200 μM
[3] = molecular target: T1, Recombinant Human Hexosaminidase B (HexB) (Homo sapiens, UniProt P07686); assay: Inhibition assay against rhHexB, 4-methylumbelliferone N-acetyl-β-D-galactosaminide fluorescence; assay type: biochemical; details: 5 nM HexB, 150 μM substrate, pH 5.5; NI = no inhibition detected at 200 μM; read-out: hHexB
T1 construct: purchased R&D Systems 8907-GH-020
T1 sequence (P07686 122-556): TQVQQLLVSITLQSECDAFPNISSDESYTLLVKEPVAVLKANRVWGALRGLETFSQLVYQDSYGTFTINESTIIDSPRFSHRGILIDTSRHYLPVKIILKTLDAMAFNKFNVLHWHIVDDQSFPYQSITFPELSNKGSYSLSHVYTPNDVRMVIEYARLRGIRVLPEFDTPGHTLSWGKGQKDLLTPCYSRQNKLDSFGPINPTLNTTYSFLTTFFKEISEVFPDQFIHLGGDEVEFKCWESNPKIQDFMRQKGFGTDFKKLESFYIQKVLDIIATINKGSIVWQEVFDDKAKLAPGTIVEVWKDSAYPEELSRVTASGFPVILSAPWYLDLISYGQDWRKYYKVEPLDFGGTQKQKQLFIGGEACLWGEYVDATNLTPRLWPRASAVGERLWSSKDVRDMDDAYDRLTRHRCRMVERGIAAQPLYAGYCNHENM
Procedure: Inhibition Assays Against rhHexB
Inhibition constant (Ki) values for compounds against Recombinant Human Hexosaminidase B (HexB) enzyme, purchased from R&D Systems (cat# 8907-GH-020) are determined by measuring the change in fluorescent signal corresponding to the rate of hydrolytic activity against the commercially available artificial substrate, 4-Methylumbelliferone N-acetyl-β-D-galactosaminide. HexB activity assays were performed in a buffer 100 mM MES at pH 5.5 and 5 nM [HexB]. Inhibition assays were in the presence or absence of various concentrations of inhibitors and at a fixed substrate concentration of 150 μM and 1% DMSO. First, inhibitor was serially diluted to the desired range of concentrations in 2% DMSO buffer. Next, 50 μL, of inhibitor solutions at various concentrations in 2% DMSO Buffer was added to 50 μL of 20 nM enzyme and allowed to incubate at 25° C. for 5 minutes. 100 μL, of 300 μM and 1% DMSO substrate was then added and reaction mixture was immediately mixed and aliquoted in 45 μL triplicates to a CORNING 384 well black plate. Fluorescence signal was measured continuously for 20 minutes at 25° C. in a BioTek Neo 2 Plate reader set at excitation and emission wavelengths of 355 and 450 nm, respectively. Max reaction rates for all inhibitor concentrations were calculated within Gen5 BioTek reader software. % Activity was subsequently calculated for each inhibitor concentration against the max reaction rate of uninhibited HexB. GraphPad Prism 2016 was used to approximate the Morrison Ki values for each inhibitor.

[4] = molecular target: T2, Recombinant Human Hexosaminidase A (HexA) (Homo sapiens, UniProt P06865); assay: Inhibition assay against rhHexA, 4-methylumbelliferone-N-acetyl-β-D-glucosaminide fluorescence; assay type: biochemical; details: IC50 for lysosomal hHexA; NI = no inhibition detected at 200 μM
T2 construct: purchased R&D Systems 6237-GH-020
T2 sequence (P06865 89-529): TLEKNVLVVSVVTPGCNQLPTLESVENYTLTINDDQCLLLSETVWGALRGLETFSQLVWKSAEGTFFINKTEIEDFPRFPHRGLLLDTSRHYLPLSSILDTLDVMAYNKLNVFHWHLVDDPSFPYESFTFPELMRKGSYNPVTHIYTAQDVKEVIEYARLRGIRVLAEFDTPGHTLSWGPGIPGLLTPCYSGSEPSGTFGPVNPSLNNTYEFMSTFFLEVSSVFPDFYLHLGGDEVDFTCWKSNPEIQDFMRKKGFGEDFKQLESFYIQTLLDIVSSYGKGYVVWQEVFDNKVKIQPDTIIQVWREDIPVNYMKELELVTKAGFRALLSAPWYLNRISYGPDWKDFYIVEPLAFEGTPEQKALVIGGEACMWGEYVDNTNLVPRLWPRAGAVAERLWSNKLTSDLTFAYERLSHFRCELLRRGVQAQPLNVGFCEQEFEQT
Procedure: Inhibition Assays Against rhHexA
Human Hexosaminidase A (HexA) enzyme, purchased from R&D Systems (cat# 6237-GH-020), were determined by measuring the fluorescent signal corresponding to the rate of hydrolytic activity against the commercially available artificial substrate, 4-Methylumbelliferone-N-acetyl-β-D-glucosaminide. HexA activity assays were performed in a buffer of 100 mM sodium citrate, 250 NaCl, pH 4.5 and 1.0 nM [HexA], then stopped after 20 minutes with a solution of 1.0 M Tris, pH 9.5 to enhance fluorescent signal. Preliminary experiments have shown that reaction rates are linear for 20 minutes after substrate addition, and that 1.0 M Tris at pH 9.5 is sufficient for stopping activity, as signal is stable after stopping. Inhibition assays were run in the presence or absence of various concentrations of inhibitors and at a fixed substrate concentration of 100 μM and 1% DMSO. First, inhibitor was serially diluted to the desired range of concentrations in 2% DMSO buffer. Next, 25 μL, of inhibitor solutions at various concentrations in 2% DMSO Buffer was added to 25 μL, of 4.0 nM enzyme and allowed to incubate at 25° C. for 5 minutes. 50 μL of 200 μM and 1% DMSO substrate was then added and allowed to react for 20 minutes. 100 μL of stop solution was added to reaction mixture, and immediately mixed and aliquoted in 45 μL triplicates to a CORNING 384 well black plate. Fluorescence signal was measured in a BioTek Neo 2 Plate reader set at excitation and emission wavelengths of 355 and 450 nm, respectively. % Activity was subsequently calculated for each inhibitor concentration against the fluorescence signal of uninhibited HexA. […]

CCC(=O)N[C@H]1CN2/C(=N/Cc3ccccc3)SC[C@@H]2[C@@H](O)[C@@H]1O [Compound 13, 2-Propanamido-5-N,6-S-(N′-benzyliminomethylidene)-1,2-dideoxy-6-thionojirimycin Hydrochloride]
> 200 µM: Ki [1] | IC50 [2] | Ki [3] | IC50 [4]

CCC(=O)N[C@H]1CN2/C(=N/Cc3cccc4ccccc34)SC[C@@H]2[C@@H](O)[C@@H]1O [Compound 14, 2-Propionamido-5-N,6-S-(N′-1-naphthylmethyliminomethylidene)-1,2-dideoxy-6-thionojirimycin hydrochloride]
> 200 µM: Ki [1] | IC50 [2] | Ki [3] | IC50 [4]

CCC(=O)N[C@H]1CN2/C(=N/Cc3ccc4[nH]ccc4c3)SC[C@@H]2[C@@H](O)[C@@H]1O [Compound 15, 2-Propionamido-5-N,6-S-(N′-5-indolylmethyliminomethylidene)-1,2-dideoxy-6-thionojirimycin hydrochloride]
> 200 µM: Ki [1] | IC50 [2] | Ki [3] | IC50 [4]

CC(C)C(=O)N[C@H]1CN2/C(=N/Cc3ccccc3)SC[C@@H]2[C@@H](O)[C@@H]1O [Compound 16, 2-Isobutanamido-5-N,6-S-(N′-benzyliminomethylidene)-1,2-dideoxy-6-thionojirimycin Hydrochloride]
> 200 µM: Ki [1] | IC50 [2] | Ki [3] | IC50 [4]

CCCC(=O)N[C@H]1CN2/C(=N/Cc3ccccc3)SC[C@@H]2[C@@H](O)[C@@H]1O [Compound 17, 2-Butanamido-5-N,6-S-(N′-benzyliminomethylidene)-1,2-dideoxy-6-thionojirimycin]
> 200 µM: Ki [1] | IC50 [2] | Ki [3] | IC50 [4]

CCNC(=S)N[C@H]1CN2/C(=N/Cc3ccccc3)SC[C@@H]2[C@@H](O)[C@@H]1O [Compound 18, 2-Ethylthioureido-5-N,6-S-(N′-benzyliminomethylidene)-1,2-dideoxy-6-thionojirimycin]
> 200 µM: Ki [1] | IC50 [2] | Ki [3] | IC50 [4]

CCCNC(=S)N[C@H]1CN2/C(=N/Cc3ccccc3)SC[C@@H]2[C@@H](O)[C@@H]1O [Compound 19, 2-Propylthioureido-5-N,6-S-(N′-benzyliminomethylidene)-1,2-dideoxy-6-thionojirimycin]
> 200 µM: Ki [1] | IC50 [2] | Ki [3] | IC50 [4]

— patent US20230391796A1, “GLYCOSIDASE INHIBITORS AND USES THEREOF” (UNIVERSIDAD DE SEVILLA (US) -UNIVERSITY OF SEVILLE (US), priority 2020, published 2023)
